Experimental data: patent publication US20240101540A1, “TARGETED PROTEIN DEGRADATION OF PARP14 FOR USE IN THERAPY” (Ribon Therapeutics, Inc., priority 2022, published 2024)

Target: T1, HiBiT tagged PARP14 (Homo sapiens, UniProt Q460N5)
T1 construct: engineered to contain a HiBiT tag on both alleles of the PARP14 gene; endogenous in cells; host or cells: Jurkat cells stably transfected with LgBiT (Promega), PARP14 locus edited by CRISPR/Cas9
Experiment: HiBiT assay for the degradation of PARP14 (HiBiT tagged PARP14 in LgBiT expressing Jurkat cells, 2 or 24 hours)
Format: cell-based
Details: Assay B (Example B): HiBiT tagged PARP14 degradation in LgBiT expressing Jurkat cells, read-out: DC50
Outline: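 Luminescence from HiBiT–LgBiT complementation served as proxy for endogenous PARP14 level in edited LgBiT Jurkat cells (5,000/well). After 2 or 24 h compound exposure at 37 °C, signal read with Live Cell Substrate, expressed as % of 0.1% DMSO control, and fitted (4-parameter, free Hill) for DC50.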

T1 sequence (Q460N5 whole entry): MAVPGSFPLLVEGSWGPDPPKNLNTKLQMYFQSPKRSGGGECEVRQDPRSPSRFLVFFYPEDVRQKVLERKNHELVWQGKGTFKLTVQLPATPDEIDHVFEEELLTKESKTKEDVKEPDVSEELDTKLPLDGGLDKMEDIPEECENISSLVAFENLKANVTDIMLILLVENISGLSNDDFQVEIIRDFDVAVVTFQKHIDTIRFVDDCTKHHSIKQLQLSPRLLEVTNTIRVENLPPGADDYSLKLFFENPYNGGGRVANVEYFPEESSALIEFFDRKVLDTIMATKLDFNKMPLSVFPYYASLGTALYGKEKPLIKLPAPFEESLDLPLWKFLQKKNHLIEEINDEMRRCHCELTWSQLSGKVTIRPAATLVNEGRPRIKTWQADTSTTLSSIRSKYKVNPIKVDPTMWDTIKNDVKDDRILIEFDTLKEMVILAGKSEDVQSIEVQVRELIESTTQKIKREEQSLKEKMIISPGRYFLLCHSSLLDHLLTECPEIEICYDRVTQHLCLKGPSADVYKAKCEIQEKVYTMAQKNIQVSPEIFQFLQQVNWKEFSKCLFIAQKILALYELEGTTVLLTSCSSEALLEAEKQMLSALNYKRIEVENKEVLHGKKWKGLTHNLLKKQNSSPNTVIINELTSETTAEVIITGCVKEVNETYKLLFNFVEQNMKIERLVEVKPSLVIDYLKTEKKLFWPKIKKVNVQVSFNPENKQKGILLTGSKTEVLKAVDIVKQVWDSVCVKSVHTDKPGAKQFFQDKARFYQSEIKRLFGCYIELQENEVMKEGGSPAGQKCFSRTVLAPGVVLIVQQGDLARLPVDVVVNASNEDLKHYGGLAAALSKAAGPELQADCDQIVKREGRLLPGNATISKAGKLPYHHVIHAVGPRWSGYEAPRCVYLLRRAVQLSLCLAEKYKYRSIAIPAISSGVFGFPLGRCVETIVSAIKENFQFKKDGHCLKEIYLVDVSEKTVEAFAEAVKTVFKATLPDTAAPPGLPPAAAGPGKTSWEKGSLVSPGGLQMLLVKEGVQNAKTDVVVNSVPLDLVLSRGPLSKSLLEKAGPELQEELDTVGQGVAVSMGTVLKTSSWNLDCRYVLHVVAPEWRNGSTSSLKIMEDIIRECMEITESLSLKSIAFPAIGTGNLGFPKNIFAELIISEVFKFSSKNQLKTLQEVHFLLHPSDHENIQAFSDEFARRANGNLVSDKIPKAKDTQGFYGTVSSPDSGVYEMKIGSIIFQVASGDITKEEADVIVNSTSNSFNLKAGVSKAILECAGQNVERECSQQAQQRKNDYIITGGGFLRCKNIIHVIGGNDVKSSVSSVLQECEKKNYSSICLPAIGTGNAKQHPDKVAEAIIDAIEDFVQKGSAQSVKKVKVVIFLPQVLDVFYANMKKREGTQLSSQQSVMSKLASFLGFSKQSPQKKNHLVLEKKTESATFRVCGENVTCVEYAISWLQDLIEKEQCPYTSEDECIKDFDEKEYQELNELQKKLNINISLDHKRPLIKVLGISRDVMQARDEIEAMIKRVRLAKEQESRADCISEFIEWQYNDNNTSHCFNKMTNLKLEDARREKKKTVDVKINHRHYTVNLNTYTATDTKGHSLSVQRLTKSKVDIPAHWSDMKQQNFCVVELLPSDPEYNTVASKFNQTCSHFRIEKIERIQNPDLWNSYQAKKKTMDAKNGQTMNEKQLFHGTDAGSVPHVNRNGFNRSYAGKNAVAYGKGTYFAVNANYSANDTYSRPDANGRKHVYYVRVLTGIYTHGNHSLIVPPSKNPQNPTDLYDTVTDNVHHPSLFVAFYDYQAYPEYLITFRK

| SMILES | DC50 [nM] |
| --- | --- |
| Cn1nc(N2CCC(=O)NC2=O)c2ccc(C3CCN(C4CCN(CCOc5cc(F)c6c(=O)[nH]c(CSC7CCOCC7)nc6c5)CC4)CC3)cc21 [Example 187, 1-(6-(1′-(2-((5-fluoro-4-oxo-2-(((tetrahydro-2H-pyran-4-yl)thio)methyl)-3,4-dihydroquinazolin-7-yl)oxy)ethyl)-[1,4′-bipiperidin]-4-yl)-1-methyl-1H-indazol-3-yl)dihydropyrimidine-2,4(1H,3H)-dione diformate] | < 30 |
| O=C1CCC(Nc2ccc(C(=O)N3CCN(CCN4CCC(COc5cc(F)c6c(=O)[nH]c(CSC7CCOCC7)nc6c5)CC4)CC3)cc2)C(=O)N1 (centres unmarked) [Example 188, 3-((4-(4-(2-(4-(((5-fluoro-4-oxo-2-(((tetrahydro-2H-pyran-4-yl)thio)methyl)-3,4-dihydroquinazolin-7-yl)oxy)methyl)piperidin-1-yl)ethyl)piperazine-1-carbonyl)phenyl)amino)piperidine-2,6-dione] | < 30 |
| O=C1CCC(Nc2ccc(N3CCN(C(=O)CN4CCC(COc5cc(F)c6c(=O)[nH]c(CSC7CCOCC7)nc6c5)CC4)CC3)c(F)c2)C(=O)N1 (centres unmarked) [Example 189, 3-((3-fluoro-4-(4-(2-(4-(((5-fluoro-4-oxo-2-(((tetrahydro-2H-pyran-4-yl)thio)methyl)-3,4-dihydroquinazolin-7-yl)oxy)methyl)piperidin-1-yl)acetyl)piperazin-1-yl)phenyl)amino)piperidine-2,6-dione] | < 30 |
| O=C1CCC(N2C(=O)c3ccc(N4CCC(N5CCC(COc6cc(F)c7c(=O)[nH]c(CSC8CCOCC8)nc7c6)CC5)CC4)cc3C2=O)C(=O)N1 (centres unmarked) [Example 190, 2-(2,6-dioxopiperidin-3-yl)-5-(4-(((5-fluoro-4-oxo-2-(((tetrahydro-2H-pyran-4-yl)thio)methyl)-3,4-dihydroquinazolin-7-yl)oxy)methyl)-[1,4′-bipiperidin]-1′-yl)isoindoline-1,3-dione] | < 30 |
| O=C1CCC(N2C(=O)c3ccc(N4CCC(N5CC(N6CCC(COc7cc(F)c8c(=O)[nH]c(CSC9CCOCC9)nc8c7)CC6)C5)CC4)cc3C2=O)C(=O)N1 (centres unmarked) [Example 191, 2-(2,6-dioxopiperidin-3-yl)-5-(4-(3-(4-(((5-fluoro-4-oxo-2-(((tetrahydro-2H-pyran-4-yl)thio)methyl)-3,4-dihydroquinazolin-7-yl)oxy)methyl)piperidin-1-yl)azetidin-1-yl)piperidin-1-yl)isoindoline-1,3-dione] | < 30 |
| O=C1CCC(Nc2ccc(N3CCN(CCN4CCC(COc5cc(F)c6c(=O)[nH]c(COC7CCOCC7)nc6c5)CC4)CC3)cc2F)C(=O)N1 (centres unmarked) [Example 192, 3-((2-fluoro-4-(4-(2-(4-(((5-fluoro-4-oxo-2-(((tetrahydro-2H-pyran-4-yl)oxy)methyl)-3,4-dihydroquinazolin-7-yl)oxy)methyl)piperidin-1-yl)ethyl)piperazin-1-yl)phenyl)amino)piperidine-2,6-dione diformate] | < 30 |
| O=C1CCC(Nc2ccc(N3CCN(CCN4CC(COc5cc(F)c6c(=O)[nH]c(CSC7CCOCC7)nc6c5)C4)CC3)c(F)c2)C(=O)N1 (centres unmarked) [Example 193, 3-((3-fluoro-4-(4-(2-(3-(((5-fluoro-4-oxo-2-(((tetrahydro-2H-pyran-4-yl)thio)methyl)-3,4-dihydroquinazolin-7-yl)oxy)methyl)azetidin-1-yl)ethyl)piperazin-1-yl)phenyl)amino)piperidine-2,6-dione] | < 30 |
| O=C1CCC(Nc2ccc(N3CCN(CCN4CCC(COc5cc(F)c6c(=O)[nH]c(CSC7CCCCC7)nc6c5)CC4)CC3)c(F)c2)C(=O)N1 (centres unmarked) [Example 194, 3-({4-[4-(2-{4-[({2-[(cyclohexylsulfanyl)methyl]-5-fluoro-4-oxo-3H-quinazolin-7-yl}oxy)methyl]piperidin-1-yl}ethyl)piperazin-1-yl]-3-fluorophenyl}amino)piperidine-2,6-dione] | < 30 |
| Cn1nc(C2CCC(=O)NC2=O)c2cc(F)c(C3CCN(CCN4CCC(COc5cc(F)c6c(=O)[nH]c(CSC7CCOCC7)nc6c5)CC4)CC3)cc21 (centres unmarked) [Example 195, 3-(5-fluoro-6-(1-(2-(4-(((5-fluoro-4-oxo-2-(((tetrahydro-2H-pyran-4-yl)thio)methyl)-3,4-dihydroquinazolin-7-yl)oxy)methyl)piperidin-1-yl)ethyl)piperidin-4-yl)-1-methyl-1H-indazol-3-yl)piperidine-2,6-dione] | < 30 |
| O=C1CCN(c2ccc(N3CCN(CCN4CCC(COc5cc(F)c6c(=O)[nH]c(CSC7CCOCC7)nc6c5)CC4)CC3)c(F)c2)C(=O)N1 [Example 196, 1-(3-fluoro-4-(4-(2-(4-(((5-fluoro-4-oxo-2-(((tetrahydro-2H-pyran-4-yl)thio)methyl)-3,4-dihydroquinazolin-7-yl)oxy)methyl)piperidin-1-yl)ethyl)piperazin-1-yl)phenyl)dihydropyrimidine-2,4(1H,3H)-dione] | < 30 |
| O=C1CCN(c2ccc(N3CCN(CCN4CCC(COc5cc(F)c6c(=O)[nH]c(COC7CCOCC7)nc6c5)CC4)CC3)c(F)c2)C(=O)N1 [Example 197, 1-(3-fluoro-4-(4-(2-(4-(((5-fluoro-4-oxo-2-(((tetrahydro-2H-pyran-4-yl)oxy)methyl)-3,4-dihydroquinazolin-7-yl)oxy)methyl)piperidin-1-yl)ethyl)piperazin-1-yl)phenyl)dihydropyrimidine-2,4(1H,3H)-dione] | < 30 |
| Cn1nc(N2CCC(=O)NC2=O)c2cc(F)c(C3CCN(CCN4CCC(COc5cc(F)c6c(=O)[nH]c(COC7CCOCC7)nc6c5)CC4)CC3)cc21 [Example 198, 1-(5-fluoro-6-(1-(2-(4-(((5-fluoro-4-oxo-2-(((tetrahydro-2H-pyran-4-yl)oxy)methyl)-3,4-dihydroquinazolin-7-yl)oxy)methyl)piperidin-1-yl)ethyl)piperidin-4-yl)-1-methyl-1H-indazol-3-yl)dihydropyrimidine-2,4(1H,3H)-dione] | < 30 |
| O=C1CCC(Nc2ccc(NC(=O)[C@H]3CCN(CCN4CCC(COc5cc(F)c6c(=O)[nH]c(COC7CCOCC7)nc6c5)CC4)C3)c(F)c2)C(=O)N1 (stereo partly drawn) [Example 199, (3S)-N-(4-((2,6-dioxopiperidin-3-yl)amino)-2-fluorophenyl)-1-(2-(4-(((5-fluoro-4-oxo-2-(((tetrahydro-2H-pyran-4-yl)oxy)methyl)-3,4-dihydroquinazolin-7-yl)oxy)methyl)piperidin-1-yl)ethyl)pyrrolidine-3-carboxamide] | < 30 |
| O=C1CCC(Nc2ccc(NC(=O)[C@@H]3CCN(CCN4CCC(COc5cc(F)c6c(=O)[nH]c(COC7CCOCC7)nc6c5)CC4)C3)c(F)c2)C(=O)N1 (stereo partly drawn) [Example 200, (3R)-N-(4-((2,6-dioxopiperidin-3-yl)amino)-2-fluorophenyl)-1-(2-(4-(((5-fluoro-4-oxo-2-(((tetrahydro-2H-pyran-4-yl)oxy)methyl)-3,4-dihydroquinazolin-7-yl)oxy)methyl)piperidin-1-yl)ethyl)pyrrolidine-3-carboxamide] | < 30 |
| O=C1CCC(Nc2ccc(NC(=O)C3CCN(CCN4CCC(COc5cc(F)c6c(=O)[nH]c(COC7CCOCC7)nc6c5)CC4)CC3)c(F)c2)C(=O)N1 (centres unmarked) [Example 201, N-(4-((2,6-dioxopiperidin-3-yl)amino)-2-fluorophenyl)-1-(2-(4-(((5-fluoro-4-oxo-2-(((tetrahydro-2H-pyran-4-yl)oxy)methyl)-3,4-dihydroquinazolin-7-yl)oxy)methyl)piperidin-1-yl)ethyl)piperidine-4-carboxamide] | < 30 |
| CN(C(=O)C1CCN(CCN2CCC(COc3cc(F)c4c(=O)[nH]c(COC5CCOCC5)nc4c3)CC2)CC1)c1ccc(NC2CCC(=O)NC2=O)cc1F (centres unmarked) [Example 202, N-(4-((2,6-dioxopiperidin-3-yl)amino)-2-fluorophenyl)-1-(2-(4-(((5-fluoro-4-oxo-2-(((tetrahydro-2H-pyran-4-yl)oxy)methyl)-3,4-dihydroquinazolin-7-yl)oxy)methyl)piperidin-1-yl)ethyl)-N-methylpiperidine-4-carboxamide] | < 30 |
| Cn1nc(N2CCC(=O)NC2=O)c2cccc(C3CCN(CCN4CCC(COc5cc(F)c6c(=O)[nH]c(COC7CCOCC7)nc6c5)CC4)CC3)c21 [Example 203, 1-(7-(1-(2-(4-(((5-fluoro-4-oxo-2-(((tetrahydro-2H-pyran-4-yl)oxy)methyl)-3,4-dihydroquinazolin-7-yl)oxy)methyl)piperidin-1-yl)ethyl)piperidin-4-yl)-1-methyl-1H-indazol-3-yl)dihydropyrimidine-2,4(1H,3H)-dione] | < 30 |
| O=C1CCN(c2ccc(C3CCN(CCN4CCC(COc5cc(F)c6c(=O)[nH]c(COC7CCOCC7)nc6c5)CC4)CC3)c(F)c2)C(=O)N1 [Example 204, 1-(3-fluoro-4-(1-(2-(4-(((5-fluoro-4-oxo-2-(((tetrahydro-2H-pyran-4-yl)oxy)methyl)-3,4-dihydroquinazolin-7-yl)oxy)methyl)piperidin-1-yl)ethyl)piperidin-4-yl)phenyl)dihydropyrimidine-2,4(1H,3H)-dione] | < 30 |
| Cn1nc(N2CCC(=O)NC2=O)c2ccc(C3CCN(CCN4CCC(COc5cc(F)c6c(=O)[nH]c(COC7CCOCC7)nc6c5)CC4)CC3)c(F)c21 [Example 205, 1-(7-fluoro-6-(1-(2-(4-(((5-fluoro-4-oxo-2-(((tetrahydro-2H-pyran-4-yl)oxy)methyl)-3,4-dihydroquinazolin-7-yl)oxy)methyl)piperidin-1-yl)ethyl)piperidin-4-yl)-1-methyl-1H-indazol-3-yl)dihydropyrimidine-2,4(1H,3H)-dione] | < 30 |
| O=C1CCC(Nc2ccc(N3CCN(CCN4CCC(COc5ccc6c(=O)[nH]c(CSC7CCOCC7)nc6c5)CC4)CC3)c(F)c2)C(=O)N1 (centres unmarked) [Example 206, 3-((3-fluoro-4-(4-(2-(4-(((4-oxo-2-(((tetrahydro-2H-pyran-4-yl)thio)methyl)-3,4-dihydroquinazolin-7-yl)oxy)methyl)piperidin-1-yl)ethyl)piperazin-1-yl)phenyl)amino)piperidine-2,6-dione] | < 30 |
